Literature values, collected in patent US20170035825A1, “FOOD SUPPLEMENT COMPOSITION COMPRISING A CUCUMBER (CUCUMIS SATIVUS) EXTRACT” (NATURALEA SA, priority 2014, published 2017).

Test system: uterus explants

Structure (SMILES): O=C(O)[C@@H]1NC[C@H](O)[C@@H](O)[C@@H]1O [ido-BR1, (2R,3R,4R,5S)-3,4,5-trihydroxypiperidine-2-carboxylic acid]
- effect on inflammation at 72 h (72 h): not significant
- inflammation in the uterus explants (dose-dependent): abrogated inflammation in the uterus explants
